This is an account of results in patent publication US20020090352A1, “Compositions and methods for use in modulating immune system function” (priority 2000, published 2002).

“Also recorded” adds a separate entry of the source. Marks after values point to notes of the source that are not given here. Peptide text beside a SMILES is read from it. * marks the point of attachment. Cbz = O=C(OCc1ccccc1)*; CH2F = FC*

One data set concerns the target T1, RARγ AF2 (Homo sapiens, UniProt P13631). Further: key: '+' = agonist; '(+)' = weak agonist; '−' = antagonist; '0' = absence of agonist and antagonist activities.
T1 construct: expressed in transfected cells
T1 sequence (P13631 185-419 limits assumed): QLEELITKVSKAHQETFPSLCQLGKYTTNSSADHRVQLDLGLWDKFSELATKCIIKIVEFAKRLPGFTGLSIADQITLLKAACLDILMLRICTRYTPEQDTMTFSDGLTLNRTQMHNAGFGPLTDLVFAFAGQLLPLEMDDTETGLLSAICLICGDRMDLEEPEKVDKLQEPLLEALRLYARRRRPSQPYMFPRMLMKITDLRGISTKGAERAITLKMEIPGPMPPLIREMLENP
Particulars: retinoid activity, reporter cells; cited from earlier work.

The next data set has as its target T2, RARβ AF2 (Homo sapiens, UniProt P10826). Further: key: '+' = agonist; '(+)' = weak agonist; '−' = antagonist; '0' = absence of agonist and antagonist activities.
T2 construct: expressed in transfected cells
T2 sequence (P10826 183-417 limits assumed): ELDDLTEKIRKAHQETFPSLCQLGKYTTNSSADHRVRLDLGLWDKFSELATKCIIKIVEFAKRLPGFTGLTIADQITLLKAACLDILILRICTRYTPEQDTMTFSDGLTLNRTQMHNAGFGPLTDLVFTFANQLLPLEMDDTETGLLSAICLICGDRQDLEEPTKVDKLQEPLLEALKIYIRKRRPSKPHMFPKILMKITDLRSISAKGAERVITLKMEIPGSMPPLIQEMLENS
Particulars: retinoid activity, reporter cells; cited from earlier work.

Another data set deals with T3, RARα AF2 (Homo sapiens, UniProt P10276).
T3 construct: expressed in transfected cells
T3 sequence (P10276 183-417 limits assumed): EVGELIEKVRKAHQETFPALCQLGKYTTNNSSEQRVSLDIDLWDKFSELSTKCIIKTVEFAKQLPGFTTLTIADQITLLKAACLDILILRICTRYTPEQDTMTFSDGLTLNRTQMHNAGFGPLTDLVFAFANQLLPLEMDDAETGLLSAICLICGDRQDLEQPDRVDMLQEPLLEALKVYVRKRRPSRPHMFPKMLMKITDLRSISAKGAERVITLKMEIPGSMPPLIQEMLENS
Particulars: retinoid activity, reporter cells; cited from earlier work.

The next data set addresses T4, RARα-RXRα heterodimer (Homo sapiens, UniProt P10276+P19793).
T4 construct: expressed in transfected cells
T4 sequence (P10276 1-462): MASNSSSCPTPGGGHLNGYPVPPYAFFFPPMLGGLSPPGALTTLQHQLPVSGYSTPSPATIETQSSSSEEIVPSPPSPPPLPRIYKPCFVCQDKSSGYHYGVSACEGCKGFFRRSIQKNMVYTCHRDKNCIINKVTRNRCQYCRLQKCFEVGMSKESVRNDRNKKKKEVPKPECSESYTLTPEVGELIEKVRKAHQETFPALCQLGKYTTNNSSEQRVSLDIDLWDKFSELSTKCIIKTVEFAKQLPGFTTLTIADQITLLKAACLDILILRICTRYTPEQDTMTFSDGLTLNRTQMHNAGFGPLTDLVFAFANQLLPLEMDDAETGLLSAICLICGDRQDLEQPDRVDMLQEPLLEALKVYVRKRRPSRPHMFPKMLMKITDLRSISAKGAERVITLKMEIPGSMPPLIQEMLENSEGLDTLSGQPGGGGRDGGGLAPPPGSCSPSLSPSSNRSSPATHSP
T4 sequence (P19793 1-462): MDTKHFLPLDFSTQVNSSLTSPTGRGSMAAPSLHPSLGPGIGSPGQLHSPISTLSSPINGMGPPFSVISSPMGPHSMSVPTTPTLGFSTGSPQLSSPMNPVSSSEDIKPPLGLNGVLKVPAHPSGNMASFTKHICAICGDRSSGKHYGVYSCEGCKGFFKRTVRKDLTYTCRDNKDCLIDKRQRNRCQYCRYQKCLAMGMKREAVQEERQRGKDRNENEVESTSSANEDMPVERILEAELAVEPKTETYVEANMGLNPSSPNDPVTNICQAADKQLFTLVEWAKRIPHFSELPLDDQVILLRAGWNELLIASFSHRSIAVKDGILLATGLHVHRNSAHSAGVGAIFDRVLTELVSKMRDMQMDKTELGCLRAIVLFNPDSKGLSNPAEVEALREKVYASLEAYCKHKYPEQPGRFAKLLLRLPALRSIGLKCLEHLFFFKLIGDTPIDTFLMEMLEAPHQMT
As to conditions: retinoid activity, transient transfection; cited from earlier work.

A further data set concerns NF-κB complexes. Description: Electrophoretic mobility shift assay of nuclear NF-κB complexes in immature LC. The data set is classed as cell-based, human. As to conditions: retinoid 1 μM 6 h, then TNFα 50 ng/ml 30 min; result in words. On the technique in general: In EMSA bound probe runs differently from free probe, usually more slowly.
The target in a further data set is T5, RXRα homodimer [(RXR)2] (Homo sapiens, UniProt P19793).
T5 construct: expressed in transfected cells
T5 sequence (P19793 1-462): T4 sequence (P19793 1-462)
Particulars: retinoid activity, transient transfection; cited from earlier work.

For another data set, the system named is RXR AF2. As to conditions: retinoid activity, reporter cells; cited from earlier work.
Data set [1] deals with immature LC (Langerhans cells). Description: Apoptosis of immature LC, flow cytometry of PI stained nuclei (sub 2N particles) / annexin V. The data set is classed as cell-based, human. Particulars: for induction of apoptosis / death of immature LC by the substance on its own: no TNFα. For orientation: Flow cytometry measures light scatter and fluorescence of single cells or particles in a stream.

In the next data set the test system is T-cells stimulated by LC. The data set is classed as cell-based, human.
In data set [2] the test system is immature LC (Langerhans cells). Kind of data set: Activation of immature LC: HLA-DR and CD86 expression by flow cytometry. As to conditions: for activation of immature LC (class II / CD86, DRhi-CD86hi) in the presence of TNFα: TNFα 1-10 ng/ml. Set-up: class II or CD86 upregulation on immature LC: dose or concentration left out as unconfirmed. It is filed as cell-based, human. On the procedure:
Immature LC were cultured with retinol or vehicle and/or TNFα for 40 h. Cells were washed and incubated with HLA-DR-FITC and CD86-PE or isotype controls for 15 min at 4° C. 10^4 events were then analyzed with a FACScalibur (Becton Dickinson) using CellQuest software (Becton Dickinson). % are given for DRhi CD86hi cells gated as indicated. Data are representative of three experiments on different donors.
FIG. 3A: Day 6 immature LC were cultured for 40 h with TNFα and/or retinoids or vehicle as indicated. Cells were washed and stained with HLA-DR-FITC and CD86-PE or isotype controls for 15 min at 4° C. 10^4 events were then analyzed with a FACScalibur (Becton Dickinson) using CellQuest software (Becton Dickinson). Data are given for DRhi/CD86 hi cells gated as indicated, and are representative of 10 experiments on different donors.
Percentages of DRhi/CD86 hi cells are represented and results are expressed as the mean±SD of at last three experiments on different donors.
Flow Cytometry Analysis. 1×10^5 cells were incubated in 96-well plates (Becton Dickinson Labware, Franklin Lakes, N.J.) for 15 min at 4 ° C. in PBS, 2% human AB serum, and 0.01 M NaN3, with FITC-conjugated anti-DR (Immunotech, Marseille, France) and PE-conjugated CD86 (Pharmingen, San Diego, Calif.) at the appropriate concentration, or with control isotype-matched irrelevant mAbs at the same concentration. After washing, 10^4 events were analyzed with a FACScalibur (Becton Dickinson Immunocytometry Systems, Mountain View, Calif.) using CellQuest software.

The next data set in a line: in vitro. Particulars: human.
The test system of data set [3] is immature LC (Langerhans cells). Description: Survival of immature LC, viable cell count with trypan blue exclusion. Particulars: 1000 nM tRA; Compound II 1000 nM, Z-Vad-fmk 50 nM.
The mark [4] stands for this setting: 1 nM, two days in culture, mean ± SD.
Setting [5] is: 10 nM, two days in culture, mean ± SD.
Where [6] appears, read: 100 nM, two days in culture, mean ± SD.
The mark [7] stands for this setting: 1 μM, two days in culture, mean ± SD.
Wherever RARα AF2 is given: key: '+' = agonist; '(+)' = weak agonist; '−' = antagonist; '0' = absence of agonist and antagonist activities.
Wherever RARα-RXR DR5 is given: key: '+' = agonist; '(+)' = weak agonist; '−' = antagonist; '0' = absence of agonist and antagonist activities.

As for `CC1(C)CCC(C)(C)c2cc(C3(c4ccc(C(=O)O)cc4)OCCO3)ccc21` [SR11237, 4-[2-(5,6,7,8-tetrahydro-5,5,8,8-tetramethyl-2-naphthalenyl)-1,3-dioxolan-2-yl]benzoic acid, reference compound], the “RARγ AF2” value on RARγ AF2 was 0. At RARβ AF2, the “RARβ AF2” value is reported as 0. In addition, the “RARα AF2” value at RARα AF2 is reported as 0. For the same molecule, on RARα-RXRα heterodimer, the “RARα-RXR DR5” value is 0. Moreover, in the data set with NF-κB complexes, the “nuclear translocation / DNA-binding activity of NF-κB complexes with TNFα” value is “synergize with TNFα”. On RXRα homodimer [(RXR)2], the “(RXR)2 AF2” value is on record as “+”. For the same molecule, the “RXR AF2” value with RXR AF2 is on record as “+”. Also, the “percentage of apoptotic (<2N) particles” value in data set [1] (setting [4]), in [1] (setting [5]), in [1] (setting [6]) and in [1] (setting [7]) was “≦5%” each time. Moreover, the “induction of apoptosis / death of immature LC by the substance on its own” value in data set [1] (result in words) is “neither SR11237 (Table 3) nor BMS749 exhibited an apoptotic effect”; in [1] (result in words, listed as SR1 1237) it was “had no effects on its own”. For the same molecule, in data set [1] (result in words), the “synergy with the pan-RXR agonist SR11237 to induce LC death” value is “asynergistic effect on LC death induced by the selective RARα agonist”. In addition, the “enhancement of antigen presentation to antigen-specific T-cells in synergy with TNFα” value in the data set with T-cells stimulated by LC was “synergized with TNFα”. For the same molecule, the “activation of immature LC (class II / CD86, DRhi-CD86hi) in the presence of TNFα” value in data set [2] (result in words) was “also synergized with TNFα; also recorded: upregulate”.

Take `CC1=C(/C=C/C(C)=C/C=C/C(C)=C/CO)C(C)(C)CCC1` [Rol, retinol]: in “in vitro”, the cytotoxicity at 2 days, 1 μM worked out at 20%. This molecule also came in with a cytotoxicity at 3 days, 1 μM in “in vitro” of 40%. Further, the “percentage of apoptotic (<2N) particles” value in data set [1] (setting [4]) is given as “≦5^(a) %”; in [1] (setting [5]), “≦5%”; in data set [1] (setting [6]) it was “≦5%”; in data set [1] (setting [7]), 17±8%; in data set [1] (Table 3C, retinoid 1 μM in medium, no inhibitor) it was 17 ± 8%. In data set [1] (result in words), the “induction of apoptosis / death of immature LC by the substance on its own” value is “increased”. Also, the “allogeneic T-lymphocyte proliferation (MLR)” value in the data set on T-cells stimulated by LC is “increase alloreactive proliferative response”. Further, the “minimum effective dose for significant LC activation” value in [2] was determined as 1 µM. In addition, the “synergy with IL-1β to activate LC” value in [2] (IL-1β 1-10 ng/ml, result in words) is “synergized with IL-1β”. Further, the “activation of immature LC (class II / CD86, DRhi-CD86hi) in the presence of TNFα” value in [2] (result in words, listed as Retinol) is given as “synergize with TNFα; also recorded: upregulate”; in data set [2] (result in words, listed as retinol), “synergized with TNFα”. Besides, the “class II or CD86 upregulation on immature LC” value in data set [2] (in the absence or at low concentrations of TNFα) is recorded as “did not significantly induce”.

For the molecule `COC(=O)C[C@H](NC(=O)[C@H](C)NC(=O)[C@@H](NC(=O)OCc1ccccc1)C(C)C)C(=O)CF` [Z-Vad-fmk, reference compound] (Cbz-Val-Ala-Asp(OMe)-CH2F), the “inhibition of tRA mortality” value in data set [3] is given as > 80%. Moreover, the “percentage of apoptotic (<2N) particles” value was 9 ± 7% in data set [1] (agent + Cmpd. I 1 μM, Cmpd. II 1 μM, Cmpd. VIII 1 μM, Z-Vad 50 μM, TNFα 10 ng/ml, CD40L coculture); 11 ± 4% in data set [1] (agent + Compound I 100 nM + SR11237 100 nM, Cmpd. II 1 μM, Cmpd. VIII 1 μM, Z-Vad 50 μM, TNFα 10 ng/ml, CD40L coculture); 9 ± 4% in [1] (agent + tRA 1 μM, Cmpd. II 1 μM, Cmpd. VIII 1 μM, Z-Vad 50 μM, TNFα 10 ng/ml, CD40L coculture); “≦5%” in [1] (agent alone (column 0), Cmpd. II 1 μM, Cmpd. VIII 1 μM, Z-Vad 50 μM, TNFα 10 ng/ml, CD40L coculture). In addition, the “inhibition of retinoid-induced apoptosis / cell death of immature LC” value in data set [1] (result in words) is recorded as “blocked”.
